The assay deals with T1, integrin α4β7 (RPMI-8866 cells) binding with rat MAdCAM-1/human IgG1 chimera protein (Homo sapiens, UniProt P13612+P26010).
T1 construct: lymphoma cell strain RPMI-8866 of human B cells, known to express integrin α4β7; endogenous in cells; host or cells: RPMI-8866 (human B-cell lymphoma line)
T1 sequence (P13612 34-1032): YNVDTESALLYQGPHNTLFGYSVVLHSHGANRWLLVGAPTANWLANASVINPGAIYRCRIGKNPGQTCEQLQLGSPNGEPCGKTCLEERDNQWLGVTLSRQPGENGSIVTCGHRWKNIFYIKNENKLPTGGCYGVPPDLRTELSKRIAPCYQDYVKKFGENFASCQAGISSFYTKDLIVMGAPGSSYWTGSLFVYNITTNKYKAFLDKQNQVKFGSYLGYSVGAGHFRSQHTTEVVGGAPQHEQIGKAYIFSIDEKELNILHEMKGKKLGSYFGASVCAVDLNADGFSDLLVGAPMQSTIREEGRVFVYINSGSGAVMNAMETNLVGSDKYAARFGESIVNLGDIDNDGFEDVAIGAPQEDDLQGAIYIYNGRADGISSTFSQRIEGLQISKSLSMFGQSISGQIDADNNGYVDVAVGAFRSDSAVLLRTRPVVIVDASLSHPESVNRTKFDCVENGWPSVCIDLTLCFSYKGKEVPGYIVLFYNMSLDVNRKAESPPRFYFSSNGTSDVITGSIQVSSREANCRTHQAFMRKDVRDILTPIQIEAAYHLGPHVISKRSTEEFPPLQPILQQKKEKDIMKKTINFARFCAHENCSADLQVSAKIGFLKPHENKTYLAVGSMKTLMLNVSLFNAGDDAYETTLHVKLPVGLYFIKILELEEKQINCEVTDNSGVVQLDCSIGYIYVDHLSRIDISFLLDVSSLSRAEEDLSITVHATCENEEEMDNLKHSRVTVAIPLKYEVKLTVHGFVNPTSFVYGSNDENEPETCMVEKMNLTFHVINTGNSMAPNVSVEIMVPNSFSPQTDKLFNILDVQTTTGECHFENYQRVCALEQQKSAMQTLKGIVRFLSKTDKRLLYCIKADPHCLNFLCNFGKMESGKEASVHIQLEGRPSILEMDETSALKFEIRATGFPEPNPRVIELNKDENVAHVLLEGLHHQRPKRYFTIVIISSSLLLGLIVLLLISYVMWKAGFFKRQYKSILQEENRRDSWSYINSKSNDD
T1 sequence (P26010 20-798): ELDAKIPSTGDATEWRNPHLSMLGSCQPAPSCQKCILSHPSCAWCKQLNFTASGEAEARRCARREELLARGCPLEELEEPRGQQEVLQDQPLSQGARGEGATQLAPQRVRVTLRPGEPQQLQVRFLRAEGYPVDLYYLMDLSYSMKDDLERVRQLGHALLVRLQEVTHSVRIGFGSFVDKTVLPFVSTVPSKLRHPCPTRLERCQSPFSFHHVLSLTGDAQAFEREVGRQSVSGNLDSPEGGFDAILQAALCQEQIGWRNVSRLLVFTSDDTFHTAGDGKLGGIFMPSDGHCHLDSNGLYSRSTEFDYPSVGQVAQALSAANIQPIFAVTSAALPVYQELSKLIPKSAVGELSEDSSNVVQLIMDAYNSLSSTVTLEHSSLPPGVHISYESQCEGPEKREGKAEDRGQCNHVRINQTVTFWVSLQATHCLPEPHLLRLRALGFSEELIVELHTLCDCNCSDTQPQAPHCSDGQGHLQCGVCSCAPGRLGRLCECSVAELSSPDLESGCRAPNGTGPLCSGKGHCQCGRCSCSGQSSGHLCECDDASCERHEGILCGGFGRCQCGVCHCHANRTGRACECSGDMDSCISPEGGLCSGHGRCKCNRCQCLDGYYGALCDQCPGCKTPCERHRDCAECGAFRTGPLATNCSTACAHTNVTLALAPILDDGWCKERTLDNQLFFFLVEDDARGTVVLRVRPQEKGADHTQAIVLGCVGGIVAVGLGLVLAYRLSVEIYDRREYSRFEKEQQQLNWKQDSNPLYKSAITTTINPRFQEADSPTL
In words: Rat MAdCAM-1 antagonistic activity (rat MAdCAM-1/α4β7 binding assay), RPMI-8866 cell adhesion. As to conditions: 4 mM MnCl2, read-out: MadCAM/α 4 β 7 antagonistic activity to integrin (IC50). The format is cell-based. How it is done: (Test Example) Rat MAdCAM-1 Antagonistic Activity (rat MAdCAM-1/α4β7 Binding Assay):
The capacity of a test substance antagonistic to the binding of lymphoma cell strain RPMI-8866 of human B cells, known to express integrin α4β7, with rat MAdCAM-1/human IgG1 chimera protein was determined.
100 μl/well of human IgG1 antibody (SIGMA #I-6260) diluted with buffer A to 1/1,000 concentration was added to a micro titer plate having 96 wells. After the incubation at 4° C. overnight, the plate was washed with PBS once. 100 μl/well of rat MAdCAM-1/human IgG1 chimera protein solution diluted with a buffer (buffer C)obtained by diluting Block Ace® (Dainippon Pharmaceutical Co., Ltd.) with PBS to 1/10 concentration was added in an amount of 100 μl/well. After the incubation at 37° C. for 2 hours, unbound MAdCAM-1/IgG was removed by washing once with PBS. After completion of the washing, 150 μl/well of buffer B was added and the incubation was continued at room temperature for 1 hour. Buffer B was removed and then the plate was washed with PBS once.
RPMI-8866 cells were incubated in DMEM containing 10 μg/ml of Calcein-AM at 37° C. for 30 minutes to label them with fluorescence. The cells were again suspended in a binding buffer containing 4 mM of MnCl2.
50 μl of a test substance of various concentrations obtained by the dilution with the binding buffer was added to the plate. Immediately thereafter, 50 μl (final volume: 100 μl/well) of the fluorescent RPMI-8866 cells (4×10^6 cells/ml ) were added thereto, and they were incubated at room temperature for 30 minutes. After the shaking on a plate shaker (IKA MTS-4) at 800 rpm for 30 seconds, the solution was immediately removed to remove the unbound cells. The fluorescence quantity of the bound cells remaining in the wells was determined with a fluorescent plate reader (Wallac 1420 ARVO multi-label counter). The fluorescent strength thus obtained is proportional to the number of RPMI-8866 cells bound to MAdCAM-1 and remaining on the plate. The binding rate of each test material in various concentrations was determined while the fluorescent strength of the test material-free well was determined to be 100%. The concentration IC50 for the 50% binding inhibition was calculated.
Regarding `COc1ccc(NNC(=O)[C@H]2CC[C@H](C(=O)N[C@@H](Cc3ccc(-c4c(OC)cccc4OC)cc3)C(=O)O)CC2)cc1` [Example 51, N-[Trans-4-(4-methoxyphenylhydrazinocarbonyl)cyclohexane-1-carbonyl]-4-(2,6-dimethoxyphenyl)-L-phenylalanine], the IC50 lay within 0.2 to 1 µM.

Take `O=C(O)[C@H](Cc1ccc(OCc2c(Cl)cccc2Cl)cc1)NC(=O)[C@H]1CC[C@H](C(=O)NNc2ccc(Br)cc2)CC1` [Example 4, N-[Trans-4-(4-bromophenylhydrazinocarbonyl)cyclohexane-1-carbonyl]-O-(2,6-dichlorobenzyl)-L-tyrosine]: the IC50 is 0.2 to 1 µM.

In the case of `O=C(O)[C@H](Cc1ccc(OCc2c(Cl)cccc2Cl)cc1)NC(=O)[C@H]1CC[C@H](C(=O)NNc2ccccc2)CC1` [Example 3, N-(Trans-4-phenylhydrazinocarbonylcyclohexane-1-carbonyl)-O-(2,6-dichlorobenzyl)-L-tyrosine], the IC50 lay in the range of 0.2 to 1 µM.

As for `Cc1ccc(NNC(=O)[C@H]2CC[C@H](C(=O)N[C@@H](Cc3ccc(OCc4c(Cl)cccc4Cl)cc3)C(=O)O)CC2)cc1` [Example 34], the IC50 was 0.2 to 1 µM.

For `O=C(Nc1ccc(C[C@H](NC(=O)[C@H]2CC[C@H](C(=O)O)CC2)C(=O)O)cc1)c1snnc1-c1ccccc1` [Example 45, N-(Trans-4-carboxycyclohexane-1-carbonyl)-4-{[(4-phenyl-1,2,3-thiadiazole-5-yl)carbonyl]amino}-L-phenylalanine], the IC50 was 1 to 5 µM.

For `COc1cccc(OC)c1-c1ccc(C[C@H](NC(=O)[C@H]2CC[C@H](C(=O)O)CC2)C(=O)O)cc1` [Example 50, N-(Trans-4-carboxycyclohexane-1-carbonyl)-4-(2,6-dimethoxyphenyl)-L-phenylalanine], the IC50 fell in the range of 1 to 5 µM.

On to `O=C(O)[C@H](Cc1ccc(OCc2c(Cl)cccc2Cl)cc1)NC(=O)[C@H]1CC[C@H](C(=O)O)CC1` [Example 2, N-(Trans-4-carboxycyclohexane-1-carbonyl)-O-(2,6-dichlorobenzyl)-L-tyrosine], for which the IC50 was at most 0.2 µM.

In the case of `COc1ccc(NNC(=O)[C@H]2CC[C@H](C(=O)N[C@@H](Cc3ccc(OCc4c(Cl)cccc4Cl)cc3)C(=O)O)CC2)cc1` [Example 14], the IC50 lay within 0.2 to 1 µM.

`COc1ccc(NNC(=O)[C@H]2CC[C@H](C(=O)N[C@@H](Cc3ccc(NC(=O)c4snnc4-c4ccccc4)cc3)C(=O)O)CC2)cc1` [Example 46, N-[Trans-4-(4-methoxyphenylhydrazinocarbonyl)cyclohexane-1-carbonyl]-4-{[(4-phenyl-1,2,3-thiadiazole-5-yl)carbonyl]amino}-L-phenyl-alanine]: the IC50 lay within 1 to 5 µM.

Regarding `COc1cccc(NNC(=O)[C@H]2CC[C@H](C(=O)N[C@@H](Cc3ccc(OCc4c(Cl)cccc4Cl)cc3)C(=O)O)CC2)c1` [Example 44], the IC50 is 0.2 to 1 µM.

As for `O=C(O)[C@H](Cc1ccc(OCc2c(Cl)cccc2Cl)cc1)NC(=O)[C@H]1CC[C@H](C(=O)NNc2ccc(OC(F)(F)F)cc2)CC1` [Example 35], the IC50 was in the range of 1 to 5 µM.

Take `O=C(O)[C@H](Cc1ccc(OCc2c(Cl)cccc2Cl)cc1)NC(=O)[C@H]1CC[C@H](C(=O)NCc2ccccc2)CC1` [Example 6]: the IC50 lay in the range of 1 to 5 µM.

The values above are taken from US6610710B2, “Phenylalanine derivatives” (Ajinomoto Co., Inc., priority 1999, dated 2003).
